“Also recorded” adds a separate entry of the source. Counter-ions that a name gives are not always drawn. No end group written: not given here.
How the values were obtained:
[1] = test system: Betta splendens erythrophores; type: cell-based
[2] = test system: erythrophores; type: cell-based
[3] = test system: iridophores; type: cell-based
[4] = test system: melanophores; type: cell-based
[5] = test system: chromatophore/protozoal cell; type: cell-based
[6] = test system: chromatophores
[7] = test system: chromatophore/neuronal cell; type: cell-based
[8] = test system: chromatophore/bacterial cell; type: cell-based
[9] = test system: chromatophores; type: cell-based
[10] = test system: chromatophores; experiment: cells; conditions: read-out: Threshold concentration PPM
[11] = test system: Betta chromatophores; type: cell-based
[12] = test system: Hemichromis bimaculatus chromatophores; type: cell-based
[13] = test system: Betta splendens chromatophores; type: cell-based
[14] = test system: chromatophore/fungal cell; type: cell-based

C[C@H](CCC(=O)O)C[C@H](C)C[C@H](C)C(=O)/C=C(\O)[C@H](C)C[C@H](C)C/C=C/[C@@H](C)[C@@H](O)[C@@H](C)[C@@H](O)C[C@@H]1CC[C@@](C)([C@H]2CC[C@@](C)([C@@H](C)O)O2)O1 [Ionomycin]
erythrophore pigment response [1]: slight, but sustained aggregation

c1ccc2c(CC3=NCCN3)cccc2c1 [Naphazoline]
Chromatophore response Erythrophores [2]: Aggr.

Substance P (RPKPQQFFGLM; ends and bridges not checked; UniProt P20366 58-68, looked up)
Chromatophore response Iridophores [3]: Hue changes (FS)

O=S(=O)(F)Cc1ccccc1 [PMSF]
Chromatophore response Melanophores [4]: Imp.

Cc1ncc([N+](=O)[O-])n1CCO [Metronidazole]
Chromatophore response 2-Cell Cytosensor (second cell type included) [5]: Normal

C=CC[C@@H](CC/C(C)=C/C=C/CC/C=C\[C@@H]1CSC([C@@H]2C[C@@H]2C)=N1)OC [Curacin A]
Chromatophore response (cell spans the chromatophore columns, cell type not assigned) [6]: Aggr. and Imp. (FS)

COC(=O)[C@@H]1[C@H]2C[C@H]3c4[nH]c5ccccc5c4CCN3C[C@@H]2CC[C@@H]1O [Yohimbine]
Chromatophore response (cell spans the chromatophore columns, cell type not assigned) [6]: Blocks norepinephrine | Threshold concentration PPB [6]: X (key: X=1 to 100 PPB; XX=100 to 1000 PPB)

C=C[C@H]1C[N@@]2CC[C@H]1C[C@H]2[C@H](O)c1ccnc2ccc(OC)cc12 [Quinine sulfate]
Chromatophore response 2-Cell Cytosensor (second cell type included) [5]: Normal

Clc1cccc(Cl)c1N=C1NCCN1 [Clonidine]
Chromatophore response Erythrophores [2]: Aggr.

c1ccc2cc3c(ccc4ccccc43)cc2c1 [1,2-Benzanthracene]
Chromatophore response (cell spans the chromatophore columns, cell type not assigned) [6]: Imp.

c1ccc2c(c1)CCCC2C1=NCCN1 (stereo not drawn) [Tetrahydrozoline]
Chromatophore response Erythrophores [2]: Aggr.

Latrotoxin
Chromatophore response Erythrophores [2]: Aggr | Chromatophore response 2-Cell Cytosensor (second cell type included) [7]: Aggr.

c1cc2c3c(cccc3c1)CC2 [Acenapthene]
Chromatophore response (cell spans the chromatophore columns, cell type not assigned) [6]: Imp.

[H]/N=C(/N)N[C@H]1[C@H](O)[C@@H](O)[C@H](O[C@@H]2O[C@@H](C)[C@](O)(C=O)[C@H]2O[C@@H]2O[C@@H](CO)[C@H](O)[C@@H](O)[C@@H]2NC)[C@@H](N/C(N)=N\[H])[C@@H]1O [Streptomycin]
Chromatophore response 2-Cell Cytosensor (second cell type included) [8]: Normal

melanophore concentrating hormone [MCH]
Chromatophore response (cell spans the chromatophore columns, cell type not assigned) [6]: Aggr. | Threshold concentration PPB [6]: X (key: X=1 to 100 PPB; XX=100 to 1000 PPB)

Cn1c(=O)c2c(ncn2C)n(C)c1=O [Caffeine]
concentration at which chromatophores respond [9]: 100 µM

NCCc1c[nH]c2ccc(O)cc12 [Serotonin]
Chromatophore response Melanophores [4]: Partial

C=C(C=O)C[C@@H]1C[C@H](O)[C@]2(C)O[C@@H]3C[C@@H]4O[C@@H]5C[C@]6(C)O[C@]7(C)CC[C@@H]8O[C@@H]9C[C@]%10(C)O[C@@H]%11C(C)=CC(=O)O[C@H]%11C[C@H]%10O[C@H]9C[C@@H](C)[C@H]8O[C@H]7C[C@H]6O[C@H]5C/C=C\[C@H]4O[C@H]3C[C@H]2O1 [Brevetoxin]
Chromatophore response (cell spans the chromatophore columns, cell type not assigned) [6]: Aggr.

CC(COc1ccccc1)N(CCCl)Cc1ccccc1 (stereo not drawn) [Phenoxybenzamine, Phenoxy-benzamine]
Chromatophore response (cell spans the chromatophore columns, cell type not assigned) [6]: Blocks norepinephrine | Threshold concentration PPB [6]: X (key: X=1 to 100 PPB; XX=100 to 1000 PPB)

Nc1ncnc2c1ncn2[C@@H]1O[C@H](COP(=O)(O)OP(=O)(O)OP(=O)(O)O)[C@@H](O)[C@H]1O [ATP]
Chromatophore response 2-Cell Cytosensor (second cell type included) [7]: Erythr. Aggr.

C[C@]12CCC(=O)C=C1CC[C@@H]1[C@@H]2[C@@H](O)C[C@@]2(C)[C@H]1CC[C@]2(O)C(=O)CO [Hydrocortisone]
Chromatophore response Melanophores [4]: Hyp.D. | minimal effective concentration [10]: 1 to 100 µg/mL

COP(=O)(OC)C(O)C(Cl)(Cl)Cl (stereo not drawn) [Trichlorfon]
Threshold concentration PPT [6]: X (key: X=1 PPT or higher)

CCN(CC)CCCC(C)Nc1ccnc2cc(Cl)ccc12 (stereo not drawn) [Chloroquine]
Chromatophore response 2-Cell Cytosensor (second cell type included) [5]: Normal

O=C(O)c1ccccc1O [Salicylate]
Chromatophore response (cell spans the chromatophore columns, cell type not assigned) [6]: Imp. (FS)

MSH
Chromatophore response Melanophores [4]: Disp. | Chromatophore response Iridophores [3]: Hue changes (isolated | concentration at which chromatophores respond [9]: 0.001 µM | Threshold concentration PPB [6]: X (key: X=1 to 100 PPB; XX=100 to 1000 PPB)

COC(=O)C1=C(C)NC(C)=C([N+](=O)[O-])C1c1ccccc1C(F)(F)F (stereo not drawn) [Bay K8644]
erythrophore pigment response to direct application [1]: neither the aggregation nor dispersion of erythrophore pigment

CCCCCCC(C)(C)c1ccc([C@@H]2C[C@H](O)CC[C@H]2CCCO)c(O)c1 [Cannabinoid CP-55940, CP-55940]
Response time Hr. [6]: X (key: X=1-6 hr; XX=6-24 hr) | minimal effective concentration [10]: 100 to 1000 µg/mL

COP(=O)(OC)OC=C(Cl)Cl [Dichlorvos]
Threshold concentration PPT [6]: X (key: X=1 PPT or higher)

C=C[C@@]1(C)CC(=O)[C@]2(O)[C@@]3(C)[C@@H](O)CCC(C)(C)[C@@H]3[C@H](O)[C@H](OC(C)=O)[C@@]2(C)O1 [Forskolin]
concentration at which chromatophores respond [9]: 10000 µM

Mevinphos
Chromatophore response Melanophores [4]: Imp. | Chromatophore response Erythrophores [2]: Imp. (FS) | Chromatophore response Iridophores [3]: Hue change, then Imp. | Threshold concentration PPT [6]: X (key: X=1 PPT or higher)

NC[C@H](O)c1ccc(O)c(O)c1 [Norepinephrine]
Chromatophore response Erythrophores [2]: Aggr. | chromatophore pigment response [11]: aggregation of chromatophore pigment is apparent | change of appearance / color of chromatophores [12]: change the appearance | Threshold concentration PPB [6]: X (key: X=1 to 100 PPB; XX=100 to 1000 PPB)

OO [Hydrogen peroxide]
Chromatophore response (cell spans the chromatophore columns, cell type not assigned) [6]: Imp. (FS)

Cholera toxin
chromatophore pigment response [11]: Pigment aggregation is evident | effect of pre-incubation on norepinephrine-induced pigment aggregation [11]: impaired pigment aggregation in response to NE | lowest concentration at which inhibition of norepinephrine induced pigment aggregation is detected [13]: 1 ng/m | change of appearance / color of chromatophores [12]: change the appearance | erythrophore response upon challenge by norepinephrine [12]: impaired | color class of chromatophores with selective sensitivity [9]: erythrophores | Threshold concentration PPB [6]: X (key: X=1 to 100 PPB; XX=100 to 1000 PPB)

N [Ammonium]
Chromatophore response (cell spans the chromatophore columns, cell type not assigned) [6]: Imp. (FS)

COc1ccc(CCN(C)CCCC(C#N)(c2ccc(OC)c(OC)c2)C(C)C)cc1OC (stereo not drawn) [Verapamil]
erythrophore pigment response [1]: rapid dispersion; also recorded: disperse almost as completely as possible; also recorded: pigment dispersion; also recorded: larger dispersion

CN(C)[C@@H]1C(O)=C(C(N)=O)C(=O)[C@@]2(O)C(O)=C3C(=O)c4c(O)cccc4[C@@](C)(O)[C@H]3C[C@@H]12 [Tetrasycline]
Chromatophore response 2-Cell Cytosensor (second cell type included) [8]: Normal | Response time Hr. [6]: XX (key: X=1-6 hr; XX=6-24 hr) | Threshold concentration PPM [6]: X (key: X=1 to 100 PPM; XX=100 to 1000 PPM)

CCOP(=O)(OCC)Oc1ccc([N+](=O)[O-])cc1 [Paraoxon]
Threshold concentration PPM [6]: XX (key: X=1 to 100 PPM; XX=100 to 1000 PPM)

C[C@@H]1[C@H](O)[C@@H](C)/C=C/C=C/C=C/C=C/C=C/C=C/C=C/[C@H](O[C@@H]2O[C@H](C)[C@@H](O)[C@H](N)[C@@H]2O)C[C@@H]2O[C@](O)(C[C@@H](O)C[C@@H](O)[C@H](O)CC[C@@H](O)C[C@@H](O)CC(=O)O[C@H]1C)C[C@H](O)[C@H]2C(=O)O [Amphotericin B]
Chromatophore response 2-Cell Cytosensor (second cell type included) [14]: Normal

[Cu] [Cu]
Chromatophore response (cell spans the chromatophore columns, cell type not assigned) [6]: Imp. (FS)

CC(=O)OCOC(=O)CN(CC(=O)OCOC(C)=O)c1ccccc1OCCOc1ccccc1N(CC(=O)OCOC(C)=O)CC(=O)OCOC(C)=O [BAPTA/AM]
erythrophore pigment response [1]: pigment dispersion

C[N+](C)(C)CCOC(N)=O [Carbachol]
Chromatophore response 2-Cell Cytosensor (second cell type included) [7]: Erythr. Aggr.

Cc1ccc(N(CC2=NCCN2)c2cccc(O)c2)cc1 [Phentolamine]
Chromatophore response (cell spans the chromatophore columns, cell type not assigned) [6]: Blocks norepinephrine | Threshold concentration PPB [6]: XX (key: X=1 to 100 PPB; XX=100 to 1000 PPB)

CCn1cc(C(=O)O)c(=O)c2ccc(C)nc21 [Nalidixic acid]
Chromatophore response 2-Cell Cytosensor (second cell type included) [8]: Normal

[Ni] [Ni]
Chromatophore response (cell spans the chromatophore columns, cell type not assigned) [6]: Imp. (FS)

Penicillin
Chromatophore response 2-Cell Cytosensor (second cell type included) [8]: Normal

Cc1cc(C(C)(C)C)c(O)c(C)c1CC1=NCCN1 [Oxymetazoline]
Chromatophore response Erythrophores [2]: Aggr.

[Pb] [Pb]
Chromatophore response (cell spans the chromatophore columns, cell type not assigned) [6]: Imp. (FS)

[Ag] [Ag]
Chromatophore response (cell spans the chromatophore columns, cell type not assigned) [6]: Imp. (FS)

Source: patent publication US6913877B1 (priority 2000, dated 2005)
